Here are results for one compound from ChEMBL document CHEMBL1201862, “PubChem BioAssay data set” (2004).

The source made the active and inactive calls.

For test [1], the target named is Heat shock protein HSP 90-alpha (Homo sapiens, UniProt P07900). In kind it is functional, organism-based.
A short description of test [2]: MIN6 cell viability loss – mouse insulinoma, cytotoxicity control, dose response (AID 2122).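 Further: confirmatory high-throughput counterscreen run to flag cytotoxic compounds.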 In kind it is functional.
Test [3] addresses T1, Protein RecA (Mycobacterium tuberculosis, UniProt P9WHJ3).
T1 sequence (P9WHJ3 whole entry): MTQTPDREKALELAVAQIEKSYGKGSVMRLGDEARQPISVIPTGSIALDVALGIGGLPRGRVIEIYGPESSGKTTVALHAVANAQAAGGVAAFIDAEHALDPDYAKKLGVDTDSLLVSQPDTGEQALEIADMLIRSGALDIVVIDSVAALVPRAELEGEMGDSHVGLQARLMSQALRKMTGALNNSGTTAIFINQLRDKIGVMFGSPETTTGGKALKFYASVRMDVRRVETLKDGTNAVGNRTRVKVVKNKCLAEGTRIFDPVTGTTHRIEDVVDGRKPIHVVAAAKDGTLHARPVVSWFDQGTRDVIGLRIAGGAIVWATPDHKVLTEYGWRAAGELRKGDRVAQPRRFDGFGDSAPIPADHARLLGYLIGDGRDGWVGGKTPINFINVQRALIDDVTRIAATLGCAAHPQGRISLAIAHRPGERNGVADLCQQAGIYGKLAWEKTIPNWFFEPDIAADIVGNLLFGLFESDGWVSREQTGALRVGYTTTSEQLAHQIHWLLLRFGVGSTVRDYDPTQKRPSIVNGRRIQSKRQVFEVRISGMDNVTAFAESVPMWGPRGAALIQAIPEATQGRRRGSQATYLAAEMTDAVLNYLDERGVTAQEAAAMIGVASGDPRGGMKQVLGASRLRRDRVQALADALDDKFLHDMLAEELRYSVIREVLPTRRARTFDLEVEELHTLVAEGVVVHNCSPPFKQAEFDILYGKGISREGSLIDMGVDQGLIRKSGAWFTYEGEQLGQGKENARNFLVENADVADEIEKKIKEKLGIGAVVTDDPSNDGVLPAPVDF
In words: Fluorescence Cell-Free Homogeneous Dose Retest to Identify Inhibitors of RecA-Intein Splicing Activity. [Related pubchem assays (depositor defined):AID2097, AID2223, AID489010, AID492950]. In kind it is functional.

Test [4] deals with C-C chemokine receptor type 6 (Homo sapiens, UniProt P51684). In words: antagonism of CCR6 beta-arrestin recruitment – cell-based, luminescent beta-arrestin readout, dose response (AID 504728). In kind it is functional. (Activated receptors often draw arrestin, which recruitment assays turn into a signal.)
Test [5] addresses Beta-2 adrenergic receptor (Homo sapiens, UniProt P07550). In words: ADRB2 activation measured by internalization – cell-based, FAP fluorogen, flow cytometry, cherry pick 1, dose response (AID 588763). In kind it is functional. A general note: Flow cytometry measures light scatter and fluorescence of single cells or particles in a stream.
A short description of test [6]: NIH3T3 cell viability loss – ATP luminescence, mouse fibroblasts, counter-screen, dose response (AID 2010).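 Further: cells exposed to compound for about 90 hours before reading.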 The format is functional, cell-based.
For test [7], the target named is Beta-galactosidase (Escherichia coli, UniProt Q8VNN2). In words: detection-enzyme interference by beta-gal modulators – biochemical, E. coli enzyme, set 3, artefact control for CCR6 antagonist project, dose response (AID 504712). In kind it is functional.
Test [8] can be described thus: reduction of Shn3 3'UTR-driven luciferase in osteoblasts – cell-based, Clone20 osteoblasts, firefly luciferase, cherry-picked, dose response (AID 624132).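 Further: firefly luciferase luminescence from reporter carrying the Shn3 3'UTR in osteoblasts.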 The format is functional.
Test [9] can be described thus: Trypanosoma cruzi growth suppression in host cells – NIH3T3 host cells, beta-gal luminescence, confirmation (AID 2044).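 Further: intracellular parasites grown in NIH/3T3 mouse fibroblasts as host cells; luminescent beta-galactosidase reporter signal from transgenic T. cruzi replicating inside host cells; inhibitors lower the luminescence signal.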 In kind it is functional, cell-based.
Test [10] is described as follows: non-specific 3'UTR reporter inhibition in Clone20-Shn3RL – cell-based, Renilla luciferase, cherry-picked, counter-screen for Shn3 inhibitor project, dose response (AID 624133). In kind it is functional. Background: The purpose of a counterscreen is to sort out artefacts and off-target activity.
Test [11] concerns the target T2, Replicative DNA helicase DnaB (Mycobacterium tuberculosis, UniProt P9WMR3).
T2 sequence (P9WMR3 whole entry): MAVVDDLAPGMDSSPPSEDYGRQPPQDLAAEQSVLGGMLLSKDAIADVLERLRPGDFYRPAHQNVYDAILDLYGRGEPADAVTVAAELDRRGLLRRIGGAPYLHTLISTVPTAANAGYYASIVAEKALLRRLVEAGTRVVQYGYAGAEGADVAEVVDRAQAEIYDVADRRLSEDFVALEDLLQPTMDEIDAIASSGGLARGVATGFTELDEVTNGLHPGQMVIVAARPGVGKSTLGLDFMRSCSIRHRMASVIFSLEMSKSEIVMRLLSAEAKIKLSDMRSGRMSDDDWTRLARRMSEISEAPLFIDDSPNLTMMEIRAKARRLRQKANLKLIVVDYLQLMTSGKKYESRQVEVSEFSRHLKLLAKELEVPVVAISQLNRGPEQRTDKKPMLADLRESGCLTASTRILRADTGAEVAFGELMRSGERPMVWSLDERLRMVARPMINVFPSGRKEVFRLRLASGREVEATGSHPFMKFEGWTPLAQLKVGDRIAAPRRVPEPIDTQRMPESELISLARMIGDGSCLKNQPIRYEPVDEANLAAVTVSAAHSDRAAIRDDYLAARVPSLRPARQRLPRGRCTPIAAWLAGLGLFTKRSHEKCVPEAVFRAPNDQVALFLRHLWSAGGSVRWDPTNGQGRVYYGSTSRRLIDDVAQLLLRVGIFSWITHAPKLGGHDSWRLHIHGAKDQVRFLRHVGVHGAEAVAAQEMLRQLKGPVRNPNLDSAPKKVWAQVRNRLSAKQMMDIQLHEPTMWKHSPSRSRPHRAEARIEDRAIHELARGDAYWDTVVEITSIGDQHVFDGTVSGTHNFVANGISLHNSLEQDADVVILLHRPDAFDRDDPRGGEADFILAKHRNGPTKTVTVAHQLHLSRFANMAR
Put plainly: DnaB intein splicing inhibitors, dose response, biochemical, cell-free fluorescence (AID 449749). The format is functional.

Test [12] can be described thus: loss of viability in HepG2 cells – cell-based, CellTiter-Glo, cherry-picked, cytotoxicity control for Shn3 inhibitor project, dose response (AID 624134). The format is functional.
The nature of test [13]: HPDE-C7 pancreatic duct cell viability loss – fluorescence, HTS (AID 430). The format is functional, cell-based. The note with it: Homo sapiens.
The nature of test [14]: decrease of insulin promoter-GFP reporter – imaging, high-content screening, mouse beta cells (AID 1628). In kind it is functional. Conditions: MIN6.
Test [15] concerns the target Melanocortin receptor 4 (Homo sapiens, UniProt P32245). In words: inhibitors of MC4R cAMP signaling – cell-based, TR-FRET, biased antagonists, dose response (AID 602298).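 Further: antagonist potency against agonist-stimulated cAMP production.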 In kind it is functional.
A short description of test [16]: viability loss of HPDE-C7K cells – cell-based, fluorescence, HTS, primary screen (AID 431). In kind it is functional. Conditions: Homo sapiens.
Test [17] is described as follows: cAMP pathway inhibition in counterscreen cell line – TR-FRET cAMP detection, counter-screen for MC4R biased antagonist project, dose response (AID 602305).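 Further: U2OS cells stimulated with forskolin near its EC80 as the cAMP inducer; potency is for inhibition of forskolin-stimulated cAMP signaling.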 In kind it is functional, cell-based.

Melanocortin receptor 4, sequence (P32245 whole entry): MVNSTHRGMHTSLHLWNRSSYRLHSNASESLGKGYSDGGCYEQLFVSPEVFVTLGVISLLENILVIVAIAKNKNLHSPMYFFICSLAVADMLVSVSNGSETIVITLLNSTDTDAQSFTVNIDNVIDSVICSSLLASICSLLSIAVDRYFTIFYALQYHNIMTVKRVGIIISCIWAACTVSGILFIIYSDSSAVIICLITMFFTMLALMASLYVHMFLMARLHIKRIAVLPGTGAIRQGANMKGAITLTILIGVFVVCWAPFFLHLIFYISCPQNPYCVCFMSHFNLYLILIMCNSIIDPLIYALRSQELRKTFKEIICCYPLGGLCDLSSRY
Beta-galactosidase, sequence (Q8VNN2 whole entry): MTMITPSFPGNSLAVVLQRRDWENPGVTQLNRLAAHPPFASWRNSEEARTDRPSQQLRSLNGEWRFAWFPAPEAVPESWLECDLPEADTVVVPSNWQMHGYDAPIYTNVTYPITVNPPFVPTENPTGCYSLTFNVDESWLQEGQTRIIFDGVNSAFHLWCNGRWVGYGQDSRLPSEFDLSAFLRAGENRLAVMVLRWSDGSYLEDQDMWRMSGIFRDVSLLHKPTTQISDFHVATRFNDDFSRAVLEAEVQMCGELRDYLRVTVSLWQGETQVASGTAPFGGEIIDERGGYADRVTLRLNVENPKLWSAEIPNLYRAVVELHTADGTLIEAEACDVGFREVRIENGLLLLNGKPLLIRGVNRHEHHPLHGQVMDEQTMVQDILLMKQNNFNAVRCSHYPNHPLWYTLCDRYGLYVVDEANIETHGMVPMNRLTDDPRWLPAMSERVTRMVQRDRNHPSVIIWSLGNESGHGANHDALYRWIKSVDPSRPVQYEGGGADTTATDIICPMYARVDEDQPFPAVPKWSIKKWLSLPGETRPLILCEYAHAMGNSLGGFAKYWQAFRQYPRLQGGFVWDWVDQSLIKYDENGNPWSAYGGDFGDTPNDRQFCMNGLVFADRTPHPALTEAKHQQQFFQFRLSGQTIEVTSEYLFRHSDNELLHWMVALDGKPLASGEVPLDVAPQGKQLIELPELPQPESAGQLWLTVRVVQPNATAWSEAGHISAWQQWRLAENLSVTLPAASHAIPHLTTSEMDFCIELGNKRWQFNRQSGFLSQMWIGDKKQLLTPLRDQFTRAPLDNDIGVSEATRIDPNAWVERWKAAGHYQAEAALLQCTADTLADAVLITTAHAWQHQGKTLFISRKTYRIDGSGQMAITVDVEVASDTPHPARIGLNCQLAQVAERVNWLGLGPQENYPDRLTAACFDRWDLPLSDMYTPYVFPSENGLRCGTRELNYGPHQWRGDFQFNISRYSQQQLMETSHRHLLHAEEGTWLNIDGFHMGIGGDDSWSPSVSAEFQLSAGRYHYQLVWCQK
Beta-2 adrenergic receptor, sequence (P07550 whole entry): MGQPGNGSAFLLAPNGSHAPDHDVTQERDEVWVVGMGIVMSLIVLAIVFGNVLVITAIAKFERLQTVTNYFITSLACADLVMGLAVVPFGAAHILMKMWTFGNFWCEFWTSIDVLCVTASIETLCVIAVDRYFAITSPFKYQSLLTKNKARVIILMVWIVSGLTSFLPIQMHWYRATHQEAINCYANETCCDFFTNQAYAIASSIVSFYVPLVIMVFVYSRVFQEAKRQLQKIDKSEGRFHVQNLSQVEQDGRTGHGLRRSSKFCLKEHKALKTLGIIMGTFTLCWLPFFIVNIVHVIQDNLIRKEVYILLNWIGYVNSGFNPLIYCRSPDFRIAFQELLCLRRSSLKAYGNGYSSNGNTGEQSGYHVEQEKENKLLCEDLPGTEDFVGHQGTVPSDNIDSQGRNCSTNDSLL
C-C chemokine receptor type 6, sequence (P51684 whole entry): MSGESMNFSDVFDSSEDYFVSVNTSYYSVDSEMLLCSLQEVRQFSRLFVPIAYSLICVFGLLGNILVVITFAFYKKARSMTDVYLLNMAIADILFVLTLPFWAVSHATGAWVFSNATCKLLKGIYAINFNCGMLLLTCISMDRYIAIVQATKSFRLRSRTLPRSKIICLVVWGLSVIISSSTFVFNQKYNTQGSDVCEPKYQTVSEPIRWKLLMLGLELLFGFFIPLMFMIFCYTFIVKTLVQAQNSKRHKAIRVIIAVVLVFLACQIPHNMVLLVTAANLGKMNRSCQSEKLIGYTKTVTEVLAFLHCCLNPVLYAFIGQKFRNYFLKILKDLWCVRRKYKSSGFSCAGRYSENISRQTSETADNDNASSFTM

A word on the AC50: it is the midpoint of the concentration-response curve, whichever way the signal moves. Broadly, the IC50 is the concentration needed to halve the response being measured. In general, EC50 refers to the concentration at which the effect is half-maximal. As to `CC(C)(C)c1cc(C(c2cccnc2)N2CCN(CCO)CC2)cc(C(C)(C)C)c1O` (configuration not stated), the AC50 in test [1] is 24 µM (active); in [8], 1.7 µM (active); in test [10], 7.04 µM (active); in [11] it was 20 µM (active); in [12], 25.2 µM (active). Moreover, the IC50 in test [2] is 3.96 µM (active); in [4] it was 35.9 µM (inactive); in test [7] it was > 66.6 µM (inactive); in [14], 4.68 µM (active); in test [15], 25.1 µM (inactive); in test [17], > 64.6 µM (inactive). For the same compound, the EC50 in [3] was 17.3 µM (active); in [5], 7.35 µM (inactive); in test [6] it was 4.59 µM (active); in [9] it was 0.488 µM (active); in [13], 3.77 µM (active); in [16] it was 3.45 µM (active).
